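96-well plates; 48 h exposure; 5 concentrations. Endpoints by linear interpolation between flanking doses. Not reached: highest tested concentration assigned. At the TGI there is no net growth.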
Tests used:
Experiment in all cases: NCI-60 cell line screen, 48 h
UACC-62 melanoma = test system: UACC-62 melanoma
HT29 colon = test system: HT29 colon
OVCAR-4 ovarian = test system: OVCAR-4 ovarian
M14 melanoma = test system: M14 melanoma
DU-145 prostate = test system: DU-145 prostate
MOLT-4 leukemia = test system: MOLT-4 leukemia
ACHN renal = test system: ACHN renal
SK-MEL-2 melanoma = test system: SK-MEL-2 melanoma
SNB-75 CNS = test system: SNB-75 CNS
T-47D breast = test system: T-47D breast
RXF 393 renal = test system: RXF 393 renal
EKVX NSCLC = test system: EKVX NSCLC
SW-620 colon = test system: SW-620 colon
SF-295 CNS = test system: SF-295 CNS
UACC-257 melanoma = test system: UACC-257 melanoma
K-562 leukemia = test system: K-562 leukemia
MCF7 breast = test system: MCF7 breast
CCRF-CEM leukemia = test system: CCRF-CEM leukemia
A549 NSCLC = test system: A549 NSCLC
HOP-92 NSCLC = test system: HOP-92 NSCLC
SK-MEL-5 melanoma = test system: SK-MEL-5 melanoma
MDA-N = test system: MDA-N
SF-539 CNS = test system: SF-539 CNS
MDA-MB-435 = test system: MDA-MB-435
OVCAR-5 ovarian = test system: OVCAR-5 ovarian
U251 CNS = test system: U251 CNS
NCI/ADR-RES ovarian = test system: NCI/ADR-RES ovarian
KM12 colon = test system: KM12 colon
LOX IMVI melanoma = test system: LOX IMVI melanoma
NCI-H460 lung = test system: NCI-H460 lung
UO-31 renal = test system: UO-31 renal
SK-MEL-28 melanoma = test system: SK-MEL-28 melanoma
RPMI-8226 leukemia = test system: RPMI-8226 leukemia
SNB-19 CNS = test system: SNB-19 CNS
IGROV1 ovarian = test system: IGROV1 ovarian
MDA-MB-231 breast = test system: MDA-MB-231 breast
OVCAR-8 ovarian = test system: OVCAR-8 ovarian
NCI-H23 lung = test system: NCI-H23 lung
SR leukemia = test system: SR leukemia
NCI-H226 lung = test system: NCI-H226 lung
BT-549 breast = test system: BT-549 breast
COLO 205 colon = test system: COLO 205 colon
SN12C renal = test system: SN12C renal
HOP-62 NSCLC = test system: HOP-62 NSCLC
HCC-2998 colon = test system: HCC-2998 colon
A498 renal = test system: A498 renal
786-0 renal = test system: 786-0 renal
OVCAR-3 ovarian = test system: OVCAR-3 ovarian
CAKI-1 renal = test system: CAKI-1 renal
PC-3 prostate = test system: PC-3 prostate
HCT-116 colon = test system: HCT-116 colon
HCT-15 colon = test system: HCT-15 colon
NCI-H522 lung = test system: NCI-H522 lung
SK-OV-3 ovarian = test system: SK-OV-3 ovarian
HS 578T breast = test system: HS 578T breast
SF-268 CNS = test system: SF-268 CNS

COc1cccc(-c2[nH]c3cc4c(cc3c(=O)c2C(=O)O)OCO4)c1
TGI (UACC-62 melanoma): > 100 µM | TGI (HT29 colon): > 100 µM | TGI (OVCAR-4 ovarian): > 100 µM | TGI (M14 melanoma): > 100 µM | TGI (DU-145 prostate): > 100 µM | TGI (MOLT-4 leukemia): > 100 µM | TGI (ACHN renal): > 100 µM | TGI (SK-MEL-2 melanoma): > 100 µM | TGI (SNB-75 CNS): > 100 µM | TGI (T-47D breast): > 100 µM | TGI (RXF 393 renal): > 100 µM | TGI (EKVX NSCLC): > 100 µM | TGI (SW-620 colon): > 100 µM | TGI (SF-295 CNS): 79.4 µM | TGI (UACC-257 melanoma): > 100 µM | TGI (K-562 leukemia): > 100 µM | TGI (MCF7 breast): > 100 µM | TGI (CCRF-CEM leukemia): > 100 µM | TGI (A549 NSCLC): > 100 µM | TGI (HOP-92 NSCLC): > 100 µM | TGI (SK-MEL-5 melanoma): > 100 µM | TGI (MDA-N): 51.5 µM | TGI (SF-539 CNS): 69.4 µM | TGI (MDA-MB-435): > 100 µM | TGI (OVCAR-5 ovarian): > 100 µM | TGI (U251 CNS): > 100 µM | TGI (NCI/ADR-RES ovarian): 47.3 µM | TGI (KM12 colon): > 100 µM | TGI (LOX IMVI melanoma): > 100 µM | TGI (NCI-H460 lung): > 100 µM | TGI (UO-31 renal): > 100 µM | TGI (SK-MEL-28 melanoma): > 100 µM | TGI (RPMI-8226 leukemia): > 100 µM | TGI (SNB-19 CNS): > 100 µM | TGI (IGROV1 ovarian): > 100 µM | TGI (MDA-MB-231 breast): > 100 µM | TGI (OVCAR-8 ovarian): 65.9 µM | TGI (NCI-H23 lung): > 100 µM | TGI (SR leukemia): > 100 µM | TGI (NCI-H226 lung): > 100 µM | TGI (BT-549 breast): > 100 µM | TGI (COLO 205 colon): 74.9 µM | TGI (SN12C renal): > 100 µM | TGI (HOP-62 NSCLC): > 100 µM | TGI (HCC-2998 colon): 74.6 µM | TGI (A498 renal): 91.6 µM | TGI (786-0 renal): > 100 µM | TGI (OVCAR-3 ovarian): > 100 µM | TGI (CAKI-1 renal): > 100 µM | TGI (PC-3 prostate): > 100 µM | TGI (HCT-116 colon): > 100 µM | TGI (HCT-15 colon): > 100 µM

FC(F)(F)c1cnc(N/N=C(/c2ccccc2)c2ccccn2)c(Cl)c1
TGI (UACC-62 melanoma): 23.1 µM | TGI (HT29 colon): 18.8 µM | TGI (OVCAR-4 ovarian): 24.8 µM | TGI (NCI-H522 lung): 4.74 µM | TGI (M14 melanoma): 15.7 µM | TGI (DU-145 prostate): 51.3 µM | TGI (MOLT-4 leukemia): > 100 µM | TGI (ACHN renal): 13.2 µM | TGI (SK-MEL-2 melanoma): 24.4 µM | TGI (SNB-75 CNS): 16 µM | TGI (RXF 393 renal): 32.5 µM | TGI (EKVX NSCLC): 17.5 µM | TGI (SW-620 colon): > 100 µM | TGI (SF-295 CNS): 11 µM | TGI (UACC-257 melanoma): 11.5 µM | TGI (K-562 leukemia): > 100 µM | TGI (MCF7 breast): 6.7 µM | TGI (CCRF-CEM leukemia): 17.6 µM | TGI (A549 NSCLC): 14.8 µM | TGI (HOP-92 NSCLC): 23.2 µM | TGI (SK-MEL-5 melanoma): 21.2 µM | TGI (MDA-N): > 100 µM | TGI (SF-539 CNS): 14.4 µM | TGI (MDA-MB-435): > 100 µM | TGI (OVCAR-5 ovarian): 31.5 µM | TGI (SK-OV-3 ovarian): 17.9 µM | TGI (U251 CNS): 30.4 µM | TGI (NCI/ADR-RES ovarian): 6.92 µM | TGI (KM12 colon): 26.3 µM | TGI (NCI-H460 lung): 10.5 µM | TGI (UO-31 renal): 21.7 µM | TGI (SK-MEL-28 melanoma): > 100 µM | TGI (RPMI-8226 leukemia): > 100 µM | TGI (SNB-19 CNS): 50.9 µM | TGI (IGROV1 ovarian): 11.5 µM | TGI (MDA-MB-231 breast): 32 µM | TGI (OVCAR-8 ovarian): 5.79 µM | TGI (NCI-H23 lung): 25.1 µM | TGI (SR leukemia): 55.3 µM | TGI (NCI-H226 lung): 50.4 µM | TGI (BT-549 breast): 29.8 µM | TGI (COLO 205 colon): 20.6 µM | TGI (SN12C renal): > 100 µM | TGI (HS 578T breast): 26.9 µM | TGI (HOP-62 NSCLC): 20.3 µM | TGI (HCC-2998 colon): 24.8 µM | TGI (786-0 renal): 17.9 µM | TGI (OVCAR-3 ovarian): 11.7 µM | TGI (CAKI-1 renal): 19.6 µM | TGI (PC-3 prostate): 24.6 µM | TGI (SF-268 CNS): 21.8 µM | TGI (HCT-116 colon): 12.1 µM | TGI (HCT-15 colon): 33.7 µM

— PubChem BioAssay (NCI)
